Compound: CCN(CC)CCNC(=O)c1c(C)[nH]c(/C=C2\C(=O)Nc3ccc(F)cc32)c1C [Sunitinib] + CS(=O)(=O)N1CCN(Cc2cc3nc(-c4cccc5[nH]ncc45)nc(N4CCOCC4)c3s2)CC1 [Pictilisib] (partner 1 µM)
Assay: relative viability (nuclei count vs DMSO), 5 days (fraction); higher = more cells survive
Outline: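 Lung cancer cell lines were pin-tool dosed in 1536-well plates on the day after seeding, with either a lone drug or a fixed anchor-drug dose plus five library-drug doses (not always all listed) in √10 steps. Nuclei were counted on 4× images after 5 days. Relative viability is the ratio of treated-well to vehicle-well nuclei counts, with each value a median of duplicate plates.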

Row | Cell Line | relative viability (first compound 0.02 µM) | relative viability (first compound 0.06325 µM) | relative viability (first compound 0.2 µM) | relative viability (first compound 0.6325 µM) | relative viability (first compound 2 µM)
1 | 201T | 0.697 | 0.708 | 0.738 | 0.675 | 0.738
2 | A549 | 0.457 | 0.546 | 0.589 | 0.631 | 0.412
3 | A-427 | 0.702 | 0.8 | 0.926 | 0.748 | 0.73
4 | ABC-1 | 0.818 |  | 0.668 | 0.991 | 0.802
5 | BEN | 0.494 | 0.552 | 0.615 | 0.566 | 0.52
6 | CAL-12T | 0.47 | 0.58 | 0.431 | 0.628 | 0.414
7 | COR-L23 | 0.788 | 1.04 | 0.97 | 0.881 | 0.812
8 | COR-L 105 | 0.371 | 0.415 | 0.569 | 0.364 | 0.409
9 | Calu-6 | 0.901 | 0.887 | 1.13 | 1.09 | 0.93
10 | ChaGo-K-1 | 0.766 | 0.786 | 0.774 | 0.624 | 0.756
11 | EBC-1 | 0.41 | 0.377 | 0.463 | 0.411 | 0.46
12 | EKVX | 0.456 | 0.437 | 0.578 | 0.495 | 0.577
13 | EMC-BAC-2 | 0.501 | 0.601 | 0.589 | 0.548 | 0.565
14 | EPLC-272H | 0.313 | 0.336 | 0.297 | 0.338 | 0.334
15 | H3255 | 0.465 | 0.495 | 0.519 | 0.514 | 0.495
16 | HARA | 0.397 | 0.374 | 0.606 | 0.31 | 0.323
17 | HCC-15 | 0.68 | 0.791 | 0.888 | 0.749 | 0.774
18 | HCC-44 | 0.524 | 0.653 | 0.968 | 0.786 | 0.598
19 | HCC-78 | 0.206 |  | 0.227 |  | 0.246

Row | Cell Line | relative viability (first compound 0.02 µM) | relative viability (first compound 0.06325 µM) | relative viability (first compound 0.2 µM) | relative viability (first compound 0.6325 µM) | relative viability (first compound 2 µM)
20 | HCC-366 | 0.0687 | 0.181 | 0.128 | 0.175 | 0.137
21 | HCC-827 | 1.01 | 1.09 | 1.11 | 1.11 | 1.13
22 | HOP-62 | 0.66 | 1.08 | 0.745 | 0.696 | 0.724
23 | IA-LM | 0.419 | 0.395 | 0.358 | 0.331 | 0.402
24 | LC-2-ad | 0.51 | 0.461 | 0.444 | 0.285 | 0.28
25 | LCLC-97TM1 | 0.199 | 0.261 |  | 0.213 | 0.233
26 | LCLC-103H | 0.558 | 0.649 | 0.643 | 0.614 | 0.536
27 | LK-2 | 0.505 | 0.543 | 0.558 | 0.573 | 0.465
28 | LOU-NH91 | 0.525 | 0.537 | 0.533 | 0.556 | 0.53
29 | LU99A | 0.308 | 0.352 | 0.282 | 0.317 | 0.313
30 | LXF-289 | 0.743 | 0.874 | 0.868 | 0.786 | 0.881
31 | NCI-H23 | 0.498 | 0.594 | 0.483 | 0.468 | 0.504
32 | NCI-H322M | 0.497 | 0.553 | 0.582 | 0.511 | 0.474
33 | NCI-H358 | 0.369 | 0.38 | 0.34 | 0.359 | 0.261
34 | NCI-H441 | 0.431 | 0.546 | 0.48 | 0.476 | 0.428
35 | NCI-H460 | 0.323 | 0.19 | 0.441 | 0.366 | 0.304
36 | NCI-H520 | 0.244 | 0.32 | 0.348 | 0.278 | 0.273
37 | NCI-H596 | 0.376 | 0.392 | 0.428 | 0.394 | 0.434
38 | NCI-H647 | 0.302 | 0.381 |  | 0.373 | 0.454

From the supplement of paper PMC10307832
